Test results reported in ChEMBL document CHEMBL1201862, “PubChem BioAssay data set” (2004).
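Test compounds were applied to cells in 96-well plates for 48 hours at 5 doses. Here, GI50 denotes the concentration required for 50% inhibition of growth.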 Calls of active or inactive are those of the source. Rule as the data show it: active = GI50 up to about 1.1 µM and inactive = higher.

What was measured:
Assay in all cases: growth of human tumour cells (NCI), 48 h
A498 = system: A498
COLO 205 = system: COLO 205
EKVX = system: EKVX
HCT-116 = system: HCT-116
HOP-92 = system: HOP-92
M14 = system: M14
OVCAR-3 = system: OVCAR-3
OVCAR-8 = system: OVCAR-8
RPMI-8226 = system: RPMI-8226
RXF 393 = system: RXF 393
SF-295 = system: SF-295
SK-MEL-28 = system: SK-MEL-28
SK-MEL-2 = system: SK-MEL-2
SN12C = system: SN12C
SNB-19 = system: SNB-19
SW-620 = system: SW-620
U-251 = system: U-251
UACC-257 = system: UACC-257
UACC-62 = system: UACC-62
UO-31 = system: UO-31

Compound	GI50 (A498)	GI50 (COLO 205)	GI50 (EKVX)	GI50 (HCT-116)	GI50 (HOP-92)	GI50 (M14)	GI50 (OVCAR-3)	GI50 (OVCAR-8)	GI50 (RPMI-8226)	GI50 (RXF 393)	GI50 (SF-295)	GI50 (SK-MEL-28)	GI50 (SK-MEL-2)	GI50 (SN12C)	GI50 (SNB-19)	GI50 (SW-620)	GI50 (U-251)	GI50 (UACC-257)	GI50 (UACC-62)	GI50 (UO-31)
COc1ccc(C23C(=O)c4ccccc4N2O[C@H]2C(=O)N(c4ccccc4)C(=O)[C@H]23)cc1 (stereo not given in full)	> 100 µM (inactive)	> 100 µM (inactive)	> 100 µM (inactive)	> 100 µM (inactive)	> 100 µM (inactive)	> 100 µM (inactive)	> 100 µM (inactive)	> 100 µM (inactive)	> 100 µM (inactive)	> 100 µM (inactive)	> 100 µM (inactive)	> 100 µM (inactive)	> 100 µM (inactive)	> 100 µM (inactive)	> 100 µM (inactive)	> 100 µM (inactive)	> 100 µM (inactive)	> 100 µM (inactive)	> 100 µM (inactive)	> 100 µM (inactive)
CN(C)CCCNc1ccc2nnn3c4ccc(O)cc4c(=O)c1c23	6.92 µM (inactive)	2.51 µM (inactive)	9.98 µM (inactive)	1.34 µM (inactive)	4.26 µM (inactive)	7.89 µM (inactive)	9.02 µM (inactive)	1.5 µM (inactive)	2.47 µM (inactive)	0.149 µM (active)	4.37 µM (inactive)	6.52 µM (inactive)	12.7 µM (inactive)	2.95 µM (inactive)	6.61 µM (inactive)	1.16 µM (inactive)	2.73 µM (inactive)	15.8 µM (inactive)	11 µM (inactive)	2.06 µM (inactive)
CC(C)NC(=O)OCc1c(COC(=O)NC(C)C)c(-c2cc[n+](COC(=O)Cc3ccccc3)cc2)n2c1CCC2	> 100 µM (inactive)	> 100 µM (inactive)	> 100 µM (inactive)	> 100 µM (inactive)	> 100 µM (inactive)	> 100 µM (inactive)	> 100 µM (inactive)	> 100 µM (inactive)	> 100 µM (inactive)	> 100 µM (inactive)	92 µM (inactive)	> 100 µM (inactive)	> 100 µM (inactive)	> 100 µM (inactive)	> 100 µM (inactive)	> 100 µM (inactive)	> 100 µM (inactive)	> 100 µM (inactive)	56.2 µM (inactive)	> 100 µM (inactive)
CCCCCCCCCCC(C)CCCCCCC(=O)O (stereo not given)	> 100 µM (inactive)	> 100 µM (inactive)	> 100 µM (inactive)	> 100 µM (inactive)	> 100 µM (inactive)	> 100 µM (inactive)	> 100 µM (inactive)	> 100 µM (inactive)	> 100 µM (inactive)	> 100 µM (inactive)	> 100 µM (inactive)	> 100 µM (inactive)	> 100 µM (inactive)	> 100 µM (inactive)	> 100 µM (inactive)	> 100 µM (inactive)	> 100 µM (inactive)	> 100 µM (inactive)	> 100 µM (inactive)	> 100 µM (inactive)
